The record followed here is US9290451B2 (Hoffmann-La Roche Inc., priority 2011, dated 2016).

The target of one assay is human CB2 receptors (Homo sapiens (Human), UniProt P34972). Description: cAMP assay, CHO cells expressing human CB2 receptors. The format is cell-based. Particulars: CHO cells expressing human CB2, cAMP; read-out: human CB2 EC50. In outline: (§1)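 CHO cells, KRB buffer + 1 mM IBMX, 30 min 30 °C preincubation; compound 30 min 30 °C; lysis + TR-FRET cAMP detection, 2 h RT; cAMP from standard curve (10 μM–0.13 nM); EC50.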
human CB2 receptors, sequence (P34972 whole entry): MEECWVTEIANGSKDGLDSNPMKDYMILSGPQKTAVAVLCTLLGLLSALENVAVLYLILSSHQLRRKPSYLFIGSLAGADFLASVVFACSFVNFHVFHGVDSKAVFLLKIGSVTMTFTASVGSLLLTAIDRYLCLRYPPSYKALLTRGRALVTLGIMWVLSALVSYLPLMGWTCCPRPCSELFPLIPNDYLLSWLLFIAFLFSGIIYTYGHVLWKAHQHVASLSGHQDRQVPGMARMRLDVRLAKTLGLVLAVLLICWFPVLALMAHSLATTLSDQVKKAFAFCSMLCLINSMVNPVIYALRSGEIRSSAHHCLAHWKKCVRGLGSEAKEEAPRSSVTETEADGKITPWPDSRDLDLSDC

For the next assay, the target named is human CB1 receptors (Homo sapiens (Human), UniProt P21554). Description: cAMP assay, CHO cells expressing human CB1 receptors. In kind it is cell-based. Particulars: CHO cells expressing human CB1, cAMP; read-out: human CB1 EC50. In outline:
as §1

human CB1 receptors, sequence (P21554 whole entry): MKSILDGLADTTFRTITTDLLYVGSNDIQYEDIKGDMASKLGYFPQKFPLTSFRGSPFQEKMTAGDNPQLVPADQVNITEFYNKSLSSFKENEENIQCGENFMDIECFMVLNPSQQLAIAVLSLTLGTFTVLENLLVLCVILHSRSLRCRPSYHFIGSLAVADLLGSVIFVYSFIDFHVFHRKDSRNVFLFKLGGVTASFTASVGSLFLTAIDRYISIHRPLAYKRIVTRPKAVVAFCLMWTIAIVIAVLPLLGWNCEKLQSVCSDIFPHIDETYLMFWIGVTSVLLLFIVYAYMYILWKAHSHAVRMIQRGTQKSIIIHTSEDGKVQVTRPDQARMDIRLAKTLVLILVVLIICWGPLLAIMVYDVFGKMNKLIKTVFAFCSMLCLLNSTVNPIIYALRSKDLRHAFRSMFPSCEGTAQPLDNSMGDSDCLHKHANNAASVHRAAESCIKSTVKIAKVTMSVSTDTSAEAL

The term EC50 denotes the concentration giving half of the maximal effect. In the case of `O=C(NNC1CCS(=O)(=O)C1)c1ccc(N2CC(F)(F)C2)c(OCC2CC2)n1` (stereo not drawn) [Example 293, 6-Cyclopropylmethoxy-5-(3,3-difluoro-azetidin-1-yl)-pyridine-2-carboxylic acid N′-(1,1-dioxo-tetrahydro-1λ^6-thiophen-3-yl)-hydrazide], the EC50 at human CB2 receptors is 790 nM; at human CB1 receptors it was > 10 µM.

Take `Cc1csc(C(C)(C)NC(=O)c2ccc(C3CC3)c(OCC3CC3)n2)n1` [Example 294, 5-Cyclopropyl-6-cyclopropylmethoxy-pyridine-2-carboxylic acid [1-methyl-1-(4-methyl-thiazol-2-yl)-ethyl]-amide]: the EC50 on human CB2 receptors was 112 nM; at human CB1 receptors it was > 10 µM.

For `CC1(COc2nc(C(=O)NC(C)(C)c3nccs3)ccc2N2CC(F)(F)C2)COC1` [Example 295, 5-(3,3-Difluoro-azetidin-1-yl)-6-(3-methyl-oxetan-3-ylmethoxy)-pyridine-2-carboxylic acid (1-methyl-1-thiazol-2-yl-ethyl)-amide], the EC50 on human CB2 receptors was 259 nM; at human CB1 receptors, > 10 µM.

As to `CC(C)(NC(=O)c1ccc(C2CC2)c(OCC2CC2)n1)c1noc(N)n1` [Example 296, 5-Cyclopropyl-6-cyclopropylmethoxy-pyridine-2-carboxylic acid [1-(5-amino-[1,2,4]oxadiazol-3-yl)-1-methyl-ethyl]-amide], the figures for the EC50 on human CB2 receptors and on human CB1 receptors were 60.8 nM and > 10 µM, respectively.

For `CCC(CC)(NC(=O)c1cccc(OCC(F)(F)C(F)(F)F)n1)C(=O)NC` [Example 297, 6-(2,2,3,3,3-Pentafluoro-propoxy)-pyridine-2-carboxylic acid (1-ethyl-1-methylcarbamoyl-propyl)-amide], the EC50 is 962 nM at human CB2 receptors and > 10 µM at human CB1 receptors.

Regarding `CCC(CC)(NC(=O)c1ccc(C2CC2)c(OCC(F)(F)C(F)(F)F)n1)C(=O)NC` [Example 298, 5-Cyclopropyl-6-(2,2,3,3,3-pentafluoro-propoxy)-pyridine-2-carboxylic acid (1-ethyl-1-methylcarbamoyl-propyl)-amide], the EC50 is 14.2 nM at human CB2 receptors and > 10 µM at human CB1 receptors.

On to `CNC(=O)[C@H](CC(C)(C)C)NC(=O)c1ccc(C2CC2)c(OCC(F)(F)C(F)(F)F)n1` [Example 299, 5-Cyclopropyl-6-(2,2,3,3,3-pentafluoro-propoxy)-pyridine-2-carboxylic acid ((S)-3,3-dimethyl-1-methylcarbamoyl-butyl)-amide], for which the figures for the EC50 on human CB2 receptors and at human CB1 receptors were 27.6 nM and 0.603 µM, respectively.

For the compound `Cc1nc([C@H](CC2CC2)NC(=O)c2ccc(C3CC3)c(OCC(F)(F)C(F)(F)F)n2)no1` [Example 300, 5-Cyclopropyl-6-(2,2,3,3,3-pentafluoro-propoxy)-pyridine-2-carboxylic acid [(S)-2-cyclopropyl-1-(5-methyl-[1,2,4]oxadiazol-3-yl)-ethyl]-amide], the EC50 is 31.8 nM at human CB2 receptors and > 10 µM at human CB1 receptors.

With `NC(=O)[C@@H](NC(=O)c1ccc(C2CC2)c(OCC(F)(F)F)n1)c1ccccc1` [Example 301, 5-Cyclopropyl-6-(2,2,2-trifluoro-ethoxy)-pyridine-2-carboxylic acid ((S)-carbamoyl-phenyl-methyl)-amide], the EC50 at human CB2 receptors was 130 nM; on human CB1 receptors it was > 10 µM.

For `O=C(NC(c1ccccn1)C(F)(F)F)c1ccc(C2CC2)c(OCC(F)(F)F)n1` (stereo not drawn) [Example 302, 5-Cyclopropyl-6-(2,2,2-trifluoro-ethoxy)-pyridine-2-carboxylic acid (2,2,2-trifluoro-1-pyridin-2-yl-ethyl)-amide], the EC50 on human CB2 receptors was 587 nM; on human CB1 receptors, > 10 µM.

Turning to `CC(C)C[C@@H](CO)NC(=O)c1ccc(C2CC2)c(OCC(F)(F)F)n1` [Example 303, 5-Cyclopropyl-6-(2,2,2-trifluoro-ethoxy)-pyridine-2-carboxylic acid ((S)-1-hydroxymethyl-3-methyl-butyl)-amide], the EC50 is 38 nM on human CB2 receptors and > 10 µM at human CB1 receptors.

For the compound `O=C(NC1(c2nccs2)COC1)c1ccc(C2CC2)c(OCC(F)(F)F)n1` [Example 304, 5-Cyclopropyl-6-(2,2,2-trifluoro-ethoxy)-pyridine-2-carboxylic acid (3-thiazol-2-yl-oxetan-3-yl)-amide], the EC50 at human CB2 receptors was 135 nM; at human CB1 receptors, > 10 µM.

`CC(C)(NC(=O)c1ccc(C2CC2)c(OCC(F)(F)F)n1)c1nccs1` [Example 305, 5-Cyclopropyl-6-(2,2,2-trifluoro-ethoxy)-pyridine-2-carboxylic acid (1-methyl-1-thiazol-2-yl-ethyl)-amide]: the EC50 at human CB2 receptors is 50.3 nM; at human CB1 receptors it was > 10 µM.

For the compound `CC(C)(C)C(NC(=O)c1ccc(C2CC2)c(OCC(F)(F)F)n1)c1nccs1` (stereo not drawn) [Example 306, 5-Cyclopropyl-6-(2,2,2-trifluoro-ethoxy)-pyridine-2-carboxylic acid (2,2-dimethyl-1-thiazol-2-yl-propyl)-amide], the EC50 was 138 nM on human CB2 receptors and > 10 µM at human CB1 receptors.

On to `CCC(CC)(NC(=O)c1ccc(N2CC(F)(F)C2)c(OCC2CC2)n1)C(=O)N1CC(F)(F)C1` [Example 307, 6-Cyclopropylmethoxy-5-(3,3-difluoro-azetidin-1-yl)-pyridine-2-carboxylic acid [1-(3,3-difluoro-azetidine-1-carbonyl)-1-ethyl-propyl]-amide], for which the EC50 at human CB2 receptors is 4.7 nM; on human CB1 receptors, > 10 µM.

For `O=C(NNC1CCS(=O)(=O)C1)c1cccc(Cc2ccc(F)cc2)n1` (stereo not drawn) [Example 308, 6-(4-Fluoro-benzyl)-pyridine-2-carboxylic acid N′-(1,1-dioxo-tetrahydro-1λ^6-thiophen-3-yl)-hydrazide], the EC50 at human CB2 receptors was 580 nM; on human CB1 receptors it was > 10 µM.

Regarding `CC(C)(NC(=O)c1ccc(C2CC2)c(OCC2CC2)n1)c1nc(N)no1` [Example 309, 5-Cyclopropyl-6-cyclopropylmethoxy-pyridine-2-carboxylic acid [1-(3-amino-[1,2,4]oxadiazol-5-yl)-1-methyl-ethyl]-amide], the figures for the EC50 at human CB2 receptors and at human CB1 receptors were 176 nM and > 10 µM, respectively.

Take `CC(C)(C)[C@H](NC(=O)c1ccc(N2CC(F)(F)C2)c(OCC2CC2)n1)C(=O)N1CC(F)(F)C1` [Example 310, 6-Cyclopropylmethoxy-5-(3,3-difluoro-azetidin-1-yl)-pyridine-2-carboxylic acid [(S)-1-(3,3-difluoro-azetidine-1-carbonyl)-2,2-dimethyl-propyl]-amide]: the values for the EC50 at human CB2 receptors and on human CB1 receptors were 14.7 nM and > 10 µM, respectively.

On to `CC(C)C[C@H](NC(=O)c1ccc(N2CC(F)(F)C2)c(OCC2CC2)n1)C(=O)N1CC(F)(F)C1` [Example 311, 6-Cyclopropylmethoxy-5-(3,3-difluoro-azetidin-1-yl)-pyridine-2-carboxylic acid [(S)-1-(3,3-difluoro-azetidine-1-carbonyl)-3-methyl-butyl]-amide], for which the EC50 at human CB2 receptors was 8.4 nM; at human CB1 receptors, > 10 µM.

For the compound `CCOC(=O)C(CC)(CC)NC(=O)c1ccc(C(F)(F)F)c(OCC2CC2)n1` [Example 312, 2-[(6-Cyclopropylmethoxy-5-trifluoromethyl-pyridine-2-carbonyl)-amino]-2-ethyl-butyric acid ethyl ester], the EC50 on human CB2 receptors was 2.4 nM; on human CB1 receptors it was > 10 µM.

`CCC(CC)(NC(=O)c1ccc(C2CC2)c(O[C@H](CCO)C(F)(F)F)n1)C(=O)NC` [Example 313, 5-Cyclopropyl-6-((R)-3-hydroxy-1-trifluoromethyl-propoxy)-pyridine-2-carboxylic acid (1-ethyl-1-methylcarbamoyl-propyl)-amide]: the EC50 is 981 nM on human CB2 receptors and > 10 µM at human CB1 receptors.

Regarding `CCC(CC)(NC(=O)c1ccc(C2CC2)c(OCC[C@@H](O)C(F)(F)F)n1)C(=O)NC` [Example 314, 5-Cyclopropyl-6-((R)-4,4,4-trifluoro-3-hydroxy-butoxy)-pyridine-2-carboxylic acid (1-ethyl-1-methylcarbamoyl-propyl)-amide], the EC50 came out at 16.1 nM at human CB2 receptors and 1.26 µM at human CB1 receptors.

As to `CC(C)CC(NC(=O)c1ccc(N2CC(F)(F)C2)c(OCC2CC2)n1)c1ccccn1` (stereo not drawn) [Example 315, 6-Cyclopropylmethoxy-5-(3,3-difluoro-azetidin-1-yl)-pyridine-2-carboxylic acid (3-methyl-1-pyridin-2-yl-butyl)-amide], the EC50 on human CB2 receptors is 191 nM; at human CB1 receptors it was 2.32 µM.

Consider `CCC(CC)(NC(=O)c1ccc(C(F)(F)F)c(OCC2CC2)n1)C(=O)N1CC(F)(F)C1` [Example 316, 6-Cyclopropylmethoxy-5-trifluoromethyl-pyridine-2-carboxylic acid [1-(3,3-difluoro-azetidine-1-carbonyl)-1-ethyl-propyl]-amide], for which the EC50 on human CB2 receptors is 3.1 nM; on human CB1 receptors, > 10 µM.

Take `CC(C)C[C@H](NC(=O)c1cccc(C(O)c2ccc(F)cc2)n1)C(N)=O` (stereo partly drawn) [Example 317, 6-[(4-Fluoro-phenyl)-hydroxy-methyl]-pyridine-2-carboxylic acid ((S)-1-carbamoyl-3-methyl-butyl)-amide]: the EC50 is 24.2 nM on human CB2 receptors and > 10 µM at human CB1 receptors.

Turning to `Cc1nc([C@H](CC(C)C)NC(=O)c2cccc(C(O)c3ccc(F)cc3)n2)no1` (stereo partly drawn) [Example 318, 6-[(4-Fluoro-phenyl)-hydroxy-methyl]-pyridine-2-carboxylic acid [(S)-3-methyl-1-(5-methyl-[1,2,4]oxadiazol-3-yl)-butyl]-amide], the EC50 was 25.1 nM on human CB2 receptors and > 10 µM at human CB1 receptors.

Turning to `CCC(CC)(NC(=O)c1ccc(C2CC2)c(O[C@@H](CCO)C(F)(F)F)n1)C(=O)NC` [Example 319, 5-Cyclopropyl-6-((S)-3-hydroxy-1-trifluoromethyl-propoxy)-pyridine-2-carboxylic acid (1-ethyl-1-methylcarbamoyl-propyl)-amide], the EC50 at human CB2 receptors was 344 nM; at human CB1 receptors, > 10 µM.
